Data reported in paper PMC8838898, “Identification of Novel Cannabinoid CB2 Receptor Agonists from Botanical Compounds and Preliminary Evaluation of Their Anti-Osteoporotic Effects” (Molecules, 2022).
Like-named read-outs stand apart in the source and are kept apart here.

Assays:
CB2R [1] = molecular target: T1, CB2R (Homo sapiens, UniProt P34972); test: double luciferase reporter screening system in HEK293-CB2 cells; assay type: cell-based
T1 construct: expressed in transfected cells; host or cells: HEK293 cells stably transfected with pIRES2-EGFP-CB2, pGL4.29 [luc2P/CRE/Hygro] and pRL-TK
Protocol: To generate the HEK293-CB2 cells, 5 × 10^5 HEK293 cells were cultured in a 60 mm culture dish for 12 h, washed with PBS, and then transfected with Lipofectamine 3000 reagent containing a test reporter plasmid, control reporter plasmid encoding Renilla luciferase, and effector plasmid. The ratio of the transfection plasmid pIRES2-EGFP-CB2, pGL4.29 [luc2P/CRE/Hygro], and pRL-TK was 2 μg, 10 μg, and 1μg, respectively. After a 24-htransfection, cells were selected and cultured in the medium containing G418 (800 μg·mL^−1) and hygromycin (400 μg·mL^−1) for two weeks. The surviving cells were picked and expanded as HEK293-CB2R cells.
Several aspects of the high-throughput screening system were optimized to ensure efficient and accurate application of the system for high-throughput data collection. To conduct high-throughput assays in 96-well plates, the number of cells seeded per well, incubation time, drug and AM630 concentrations, and the DMSO content were optimized. The dual luciferase assay was performed as described previously. […] Subsequently, the quantitative evaluation indexes of the high-throughput screening system, including the signal-to-background ratio, S/B = Msignal/Mbackground; signal window, SW = Msignal − Mbackground; signal-to-noise ratio, S/N = (Msignal − Mbackground)/SDbackground; signal background coefficient of variation, CV(%) = 100 × SDsignal/Msignal; and Z’ factor were determined to ensure its efficient and accurate application of the system in high-throughput data collection. Here, Z′ = 1 − 3(SDsignal + SDbackground)/|Msignal − Mbackground| [25], where M represents an average of the relative luminescence value and SD is the standard deviation of M.
The HEK293-CB2 cells from 10–40 passages were separately inoculated into 96-well plates at 5 × 10^3 cells per well. […] The results were expressed as relative luminescence values.
The HEK293-CB2 cells were inoculated on a 96-well culture plate with a density of 5 × 10^3 cells per well. […] The relative luminescence value was used to express the expression of CB2R.
Furthermore, the activation of the compounds on CB2R was also verified by using the CB2R inverse agonist AM630. The HEK293-CB2 cells were inoculated on a 6-well culture plate at a density of 5 × 10^4 cells per well. […] The expression of the CB2R gene is expressed by the relative luminescence value.

[2] = test system: osteoblasts derived from mBMSC; test: ALP activity of osteoblasts derived from BMSCs; assay type: cell-based, rat; conditions: 1 μM, seven days
Protocol: (§1) BMSCs were isolated from the femur of 1-day-old Wistar rats and cultured in a dish containing α-MEM supplemented with 10% FBS, 100 U·mL^−1 penicillin, […] streptomycin, and 1% L-Glutaminea in a humidified atmosphere of 5% CO2 for 24 h. The medium was changed every three days. The subculture cells (passage 2–4) were used for subsequent experiments. BMSCs were identified in terms of the morphological character and properties of differentiation into osteoblasts. This experiment was approved by the Bioethics Committee of Zhejiang University of Traditional Chinese Medicine.
(§2) The BMSCs cells were inoculated in a 96-well plate at a density of 1 × 10^4 cells per well and cultured at 37 °C for 24 h. […] The optical density (OD) value was determined at 450 nm. The BMSCs cells were treated as described above and cultured for seven days to measure the ALP activity according to the kit instructions or cultured for five days to stain ALP in the osteoblasts according to the following procedures. Briefly, cells were washed with pre-cooled PBS twice and stained with the alkaline phosphatase staining solution for 30 min at 37 °C. After discarding the dye solution, cells were rinsed with distilled water three times and observed and photographed under a light microscope.

[3] = test system: osteoblasts derived from mBMSC; test: bone mineralization nodules of osteoblasts (alizarin red staining); assay type: cell-based, rat; conditions: 1 μM, 14 days
Protocol: as §1
Cells were treated as described above for 14 days to observe the bone mineralized nodule formation using alizarin red staining solution. Briefly, the cells were washed with pre-cooled PBS twice, fixed with 3.7% formaldehyde for 10 min, and stained with ARS dye (pH = 4.2) containing 40 mM alizarin redstain for 10 min. The morphology and number of bone mineralized nodules of osteoblasts were observed under a light microscope.

mBMSCs cells = test: proliferation of BMSCs (CCK8); assay type: cell-based, rat; conditions: 1 μM, 48 h
Protocol: as §1, §2

[4] = test system: osteoclasts derived from RAW264.7 cells; test: TRAP activity of osteoclasts derived from RAW264.7 cells induced with RANKL; assay type: cell-based, murine; conditions: 1 μM, three-day treatment; enzyme activity and cell staining
Protocol: The murine macrophage RAW264.7 cell line, which has the potential to differentiate into osteoclasts under the induction of RANKL, was obtained from the Cell Bank of the Chinese Academy of Sciences (Shanghai, China). The cells were cultured in DMEM containing 10% (v/v), 1% (v/v) penicillin, and streptomycin (Beyotime, Shanghai, China) at 37 °C in humidified air with 5% CO2, and then subcultured every two days. For induction of the osteoclasts, RAW264.7 cells were incubated with 25 ng·mL^−1 RANKL for 72 h. Osteoclasts were identified by TRAP staining.
RAW264.7 cells were inoculated in a 96-well plate at a density of 1 × 10^4 cells per well. After a 24-h culture at 37 °C, cells were treated with the test compounds for 48 h and cell viability was determined with the CCK-8 kit according to the instructions. RAW264.7 cells were inoculated on a 96-well culture plate at a density of 1 × 10^4 cells per well, induced with […] of nuclear factor-κB receptor activator ligand (RANKL) to differentiate into osteoclasts for 72 h. […] Briefly, the cells were washed with sodium thiobarbital twice, lysed with 0.1% Triton X-100 (10 μL per well) for 10 min, and then incubated with 100 μL of TRAP reaction solution (0.02 g disodium nitrophenyl phosphate and 0.1 g potassium sodium tartrate dissolved in 10 mL deionized water with pH adjusted to 3.5 by addition of 1 mol·L^−1 HCl) for 30 min at 37 °C. The reaction was terminated with 1 mol·L^−1 of NaOH solution (100 μL per well) and the absorbance was determined at a wavelength of 405 nm. The TRAP activity was expressed by the amount (mole) of p-nitrophenol produced by 100 osteoclasts. For staining, the osteoclasts were treated as described above, stained according to the instruction of the TRAP staining kit, and observed and photographed under a light microscope.

CB2R [5] = molecular target: T1, CB2R; test: forskolin-stimulated cAMP accumulation assay in HEK293-CB2 cells; assay type: cell-based; conditions: forskolin 30 min, then compound 6 h, read-out: IC50 of inhibition of forskolin-stimulated cAMP
Protocol: After treatment, the cell supernatant was diluted with PBS (pH 7.2–7.4). The cells were lysed by repeated freeze–thaw cycles and being centrifuged for 20 min at 2000–3000 r.p.m. The concentration of cAMP in the cell lysate was determined according to the instructions of the cAMP kit.

[6] = HEK293-CB2 cells, pretreated with 1 μM AM630 for 30 min, then 1 μM compound 6 h

T1 sequence (P34972 whole entry): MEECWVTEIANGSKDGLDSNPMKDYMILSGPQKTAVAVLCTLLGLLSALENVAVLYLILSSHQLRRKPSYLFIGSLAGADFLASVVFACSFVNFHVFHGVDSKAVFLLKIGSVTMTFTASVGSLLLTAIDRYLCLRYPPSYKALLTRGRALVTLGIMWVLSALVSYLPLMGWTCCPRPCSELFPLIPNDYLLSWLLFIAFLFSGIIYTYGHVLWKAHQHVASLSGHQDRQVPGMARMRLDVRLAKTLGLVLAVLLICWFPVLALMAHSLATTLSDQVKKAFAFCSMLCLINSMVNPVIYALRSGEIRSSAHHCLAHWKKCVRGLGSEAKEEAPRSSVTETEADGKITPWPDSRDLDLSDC

Row | SMILES | agonistic effect on CB2R (relative luminescence / fluorescence expression in HEK293-CB2) (CB2R [1]; 1 μM, 6 h, HEK293-CB2 cells) | reversal of the agonistic effect on CB2R by AM630 (CB2R [1]; [6]) | ALP activity of osteoblasts derived from mBMSC [2] | matrix mineralization of osteoblasts derived from mBMSC [3] | proliferation of mBMSCs cells (mBMSCs cells) | TRAP activity of osteoclasts derived from RAW264.7 cells induced with RANKL [4] | IC50 (CB2R [5]) | reversal effect on the agonistic effect of HU308 on CB2R (CB2R [1]) | agonistic effect on CB2R (relative luminescence / fluorescence expression in HEK293-CB2) (CB2R [1]) | reversal of the agonistic effect on CB2R by AM630 (CB2R [1]) | signal average and standard deviation (positive control group) (CB2R [1]; screening system validation, forskolin 1 μM)
1 | C[C@H]1[C@H](C)CC[C@]2(C)CC[C@]3(C)C(=CC(=O)[C@@H]4[C@@]5(C)CC[C@@H](O)[C@](C)(C(=O)O)[C@@H]5CC[C@]43C)[C@H]12 [11-Keto-beta-boswellic acid] | could increase the fluorescence expression | could be abated by AM630 | increased | increased | increased | inhibited TRAP activity | 73 nM | – | – | – | –
2 | COc1ccc(C(=O)c2c(C)n(CCN3CCOCC3)c3cc(I)ccc23)cc1 [AM630, reference compound] | – | – | – | – | – | – | – | mitigated | – | – | –
3 | CC(=O)OCC1=C[C@@H]2OC(=O)C3=CO[C@@H](O[C@@H]4O[C@H](CO)[C@@H](O)[C@H](O)[C@H]4O)[C@H]1[C@@H]32 [Asperuloside] | – | – | – | – | had no effect on the proliferation | – | 281 nM | – | could increase the fluorescence expression | could be abated by AM630 | –
4 | COc1cc(/C=C/c2ccccc2)oc(=O)c1 [Desmethoxyyangonin] | could increase the fluorescence expression | could be abated by AM630 | increased | increased | increased | inhibited TRAP activity | 29.9 nM | – | – | – | –
5 | COC1=CC(=O)O[C@@H](CCc2ccc3c(c2)OCO3)C1 [Dihydromethysticin] | could increase the fluorescence expression | could be abated by AM630 | increased | increased | increased | – | 35.7 nM | – | – | – | –
6 | COc1cc(O)ccc1/C=C/C(=O)c1ccc(O)cc1 [Echinatin] | could increase the fluorescence expression | could be abated by AM630 | increased | increased | increased | inhibited TRAP activity | 90.5 nM | – | – | – | –
7 | COc1ccc(/C=C/C(=O)c2c(O)cc(OC)cc2OC)cc1 [Flavokawain A] | could increase the fluorescence expression | could be abated by AM630 | increased | increased | increased | inhibited TRAP activity | 902 nM | – | – | – | –
8 | COc1cc(O)c(C(=O)/C=C/c2ccc(O)cc2)c(OC)c1 [Flavokawain C] | could increase the fluorescence expression | could be abated by AM630 | – | – | had no effect on the proliferation | – | 5170 nM | – | – | – | –
9 | O=c1cc(-c2ccc(O)c(O)c2)oc2c([C@@H]3O[C@H](CO)[C@@H](O)[C@H](O)[C@H]3O)c(O)cc(O)c12 [Orientin] | could increase the fluorescence expression | could be abated by AM630 | – | – | had no effect on the proliferation | – | 111 nM | – | – | – | –
10 | C=C[C@@]1(C)CC(=O)[C@]2(O)[C@@]3(C)[C@@H](O)CCC(C)(C)[C@@H]3[C@H](O)[C@H](OC(C)=O)[C@@]2(C)O1 [forskolin, reference compound] | – | – | – | – | – | – | – | – | – | – | 63.3 ± 4.4%
